Reference: US8513229B2, “4-Azetidinyl-1-phenyl-cyclohexane antagonists of CCR2” (Janssen Pharmaceutica NV, priority 2009, dated 2013)
pIC50: −log10 of the molar value.

Target: T1, CCR2 (Homo sapiens, UniProt P41597)
T1 construct: host or cells: THP-1 human monocytic cells
T1 sequence (P41597 1-360 isoform P41597-2): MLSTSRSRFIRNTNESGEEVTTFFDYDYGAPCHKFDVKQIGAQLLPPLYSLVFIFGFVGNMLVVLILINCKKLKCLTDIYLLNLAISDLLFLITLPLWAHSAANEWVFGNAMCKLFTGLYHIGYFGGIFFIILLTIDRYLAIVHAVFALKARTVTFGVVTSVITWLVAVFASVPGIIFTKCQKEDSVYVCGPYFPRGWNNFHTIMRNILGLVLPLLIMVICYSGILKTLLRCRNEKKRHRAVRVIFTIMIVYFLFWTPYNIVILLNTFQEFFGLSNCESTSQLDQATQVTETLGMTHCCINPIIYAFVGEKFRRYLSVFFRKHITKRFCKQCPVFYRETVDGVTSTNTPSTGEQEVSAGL
Assay: MCP-1 Receptor Binding Assay in THP-1 Cells
Conditions: 0.5 nM 125I labeled MCP-1, 2 hours at 30° C., read-out: Inhibition of MCP-1 Binding IC50 CCR2 Binding
Procedure: MCP-1 Receptor Binding Assay in THP-1 Cells
Human monocytic cell line THP-1 cells were obtained from American Type Culture Collection (Manassas, Va., USA). […] The cell density was maintained […].
1 μM cold MCP-1 was used for nonspecific binding.

Row | pIC50 | Structure (SMILES)
1 | 7.20 | O=C(CNC(=O)c1cccc(C(F)(F)F)c1)NC1CN(C2CCC(O)(c3ccc4c(c3)OCCO4)CC2)C1 (single isomer, unassigned) [Example 32a, N-({1-[4-(2,3-Dihydro-benzo[1,4]dioxin-6-yl)-4-hydroxy-cyclohexyl]-azetidin-3-ylcarbamoyl}-methyl)-3-trifluoromethyl-benzamide]
2 | 6.49 | O=C(O)Cc1ccc(C2CCC(N3CC(NC(=O)CNC(=O)c4cccc(C(F)(F)F)c4)C3)CC2)cc1 (stereo not drawn) [Example 25, [4-(4-{3-[2-(3-Trifluoromethyl-benzoylamino)-acetylamino]-azetidin-1-yl}-cyclohexyl)-phenyl]-acetic acid]
3 | 6.72 | CSc1cccc(C2(O)CCC(N3CC(NC(=O)CNC(=O)c4cccc(C(F)(F)F)c4)C3)CC2)c1 (single isomer, unassigned) [Example 38a, N-({1-[4-Hydroxy-4-(3-methylsulfanyl-phenyl)-cyclohexyl]-azetidin-3-ylcarbamoyl}-methyl)-3-trifluoromethyl-benzamide]
